“And” between values parts separate entries of the source, which are not always exact repeats. Identical values can stand only once.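 Five concentrations, 48 hours, 96-well plates. GI50 is the concentration that inhibits growth by half. TGI is the concentration that stops growth completely.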
Columns and labels:
Experiment in all cases: NCI tumour cell line growth inhibition, 48 h
XF 498 CNS = test system: XF 498 CNS
M19-MEL melanoma = test system: M19-MEL melanoma
DLD-1 colon = test system: DLD-1 colon
DMS 114 small cell lung = test system: DMS 114 small cell lung
LXFL 529 NSCLC = test system: LXFL 529 NSCLC
RXF-631 renal = test system: RXF-631 renal
KM20L2 colon = test system: KM20L2 colon
HOP-18 NSCLC = test system: HOP-18 NSCLC
MDA-N = test system: MDA-N
P388 leukemia = test system: P388 leukemia
P388/ADR leukemia = test system: P388/ADR leukemia
SN12K1 renal = test system: SN12K1 renal

SMILES	TGI (XF 498 CNS)	TGI (M19-MEL melanoma)	TGI (DLD-1 colon)	TGI (DMS 114 small cell lung)	TGI (LXFL 529 NSCLC) [µM]	TGI (RXF-631 renal) [µM]	TGI (KM20L2 colon)	TGI (HOP-18 NSCLC)	TGI (MDA-N) [µM]	further results
O=C(CC/C(CC(=O)c1ccc(Cl)cc1)=N/O)Nc1ccc(Cl)c(Cl)c1	> 100 µM	> 100 µM	> 100 µM	> 100 µM	> 100	> 100	> 100 µM	> 100 µM		
COC(=O)c1c(C)cc2c(c1O)C1(O)C(=O)c3cc4c(c(O)c3C(=O)C1(OC)C(O)C2)C(=O)C=C(NC1OC(C)C(OC)C(O)C1OC)C4=O (stereo unspecified)	0.235 µM	0.0516 µM	0.12 µM	0.0295 µM	0.205		0.395 µM			
Oc1ccc2c3c1OC1C(=NN=C4CCC5(O)C6Cc7ccc(O)c8c7C5(CCN6CC5CC5)C4O8)CCC4(O)C(C2)N(CC2CC2)CCC314 (stereo unspecified)	34.3 µM	40.9 µM	> 100 µM	44.6 µM	43.5		41.7 µM	> 100 µM		
COCOCc1cc(OCc2ccccc2)c(OC)cc1Br	> 100 µM	> 100 µM	> 100 µM				> 100 µM	> 100 µM		
N#CCCN(CCC#N)c1ccc(/C=N\c2nc(-c3ccccc3)cs2)cc1	> 100 µM	> 100 µM	> 100 µM	> 100 µM	> 100	> 100	> 100 µM			
CCOC(=O)N[C@H]1CCc2cc(O)c(OC)c(OC)c2-c2ccc(SC)c(=O)cc21	> 44.4 µM	> 100 µM	> 100 µM	0.473 µM	> 92.3	2.91	0.0301 µM	> 100 µM		
O=C1C2C(C(=O)N1c1ccccc1)C1(c3ccccc3)OC2(c2ccccc2)c2ccccc21 (stereo unspecified)		> 100 µM	> 100 µM	> 100 µM	> 100	> 100	> 100 µM	> 100 µM		
CCCC(=O)Nc1cc([N+](=O)[O-])c([N+](=O)[O-])cc1OC									30.6	
CCOCC(=O)N[C@H]1CCc2cc(OC(=O)COCC)c(OC)c(OC)c2-c2ccc(SC)c(=O)cc21									0.00611	
Cc1[nH]n(-c2ccc(S(=O)(=O)O)cc2)c(=O)c1N=Nc1ccccc1									> 100	
O=C1Nc2ccccc2/C1=C/c1ccccc1									40.7	
O=C1Cc2ccccc2N1c1c(Cl)cccc1Cl	82.3 µM	> 100 µM	> 100 µM	95.4 µM	> 100	> 100	> 100 µM	> 100 µM		
Nc1nc(Cl)c(N=Nc2ccc(Cl)cc2)c(NCC2(CO)CC(OCc3ccccc3)C2)n1 (stereo unspecified)									> 100	GI50 (MDA-N): 29.5 µM and > 100 µM and 11.8 µM
CCC[CH2][Sn]1([CH2]CCC)[O]C(=O)c2cccc(OC)c2[O]1	0.28 µM	1.23 µM	0.986 µM	0.624 µM	0.212		2.68 µM	1.95 µM		GI50 (XF 498 CNS): 0.131 µM; GI50 (M19-MEL melanoma): 0.222 µM; GI50 (DLD-1 colon): 0.244 µM; GI50 (DMS 114 small cell lung): 0.196 µM; GI50 (LXFL 529 NSCLC): 0.0427 µM; GI50 (KM20L2 colon): 1.33 µM; GI50 (HOP-18 NSCLC): 0.687 µM
CNc1cccnc1/C=N/NC(N)=S									> 10	
CC(C)=CC(O)C/C(C)=C/CC/C(C)=C/CCC1(C)C(CCCO)/C(=C(/C)C=O)CCC1(C)O (stereo unspecified)									52.4	
O=C(Nc1ccc([N+](=O)[O-])cc1C(=O)O)c1ccc([N+](=O)[O-])cc1	> 100 µM	> 100 µM	> 100 µM	50.7 µM	> 100	> 100	64.9 µM			
C#C[C@@]1(O)CCCC2=CC(=O)C[C@]21C	> 100 µM	> 100 µM	> 100 µM	> 100 µM	> 100			> 100 µM		
Oc1ccc2ccccc2c1C(c1ccc(Cl)cc1)c1c(O)ccc2ccccc12									12.2	
Cn1cnc([N+](=O)[O-])c1Sc1nc2cccnc2s1	39.2 µM	29.6 µM	26.7 µM	28.5 µM	25	28.4	31.7 µM			
C/C1=C\CC[C@@]2(C)O[C@@H]2C[C@@H]2[C@H](C/C(C)=C/CC1)OC(=O)C21CCN=N1 (stereo partly specified)									> 100	GI50 (MDA-N): > 100 µM
CN(C)CC(C)(C)C(/C=C/c1ccccc1)=N\Nc1ccccc1		22.3 µM	11.6 µM	21.8 µM	0.446		0.0605 µM	73.1 µM		
CC1C=CC(C)C2(O)C(=O)NC(O)C12 (stereo unspecified)		> 100 µM	> 100 µM	> 100 µM	> 100	> 100	> 100 µM	> 100 µM		
COc1ccc2cc3[n+](cc2c1OC)CCc1cc2c(cc1-3)OCO2	66.6 µM and 31.4 µM	22.4 µM and 41.6 µM	> 59.9 µM and 253 µM	> 64.8 µM and 76.7 µM	> 74.9		> 92.5 µM and 94.6 µM	> 100 µM and 207 µM		GI50 (DLD-1 colon): 26.2 µM and 54.2 µM; TGI (P388 leukemia): 69.6 µM; TGI (P388/ADR leukemia): > 325 µM; TGI (SN12K1 renal): 37.7 µM
CN(C)c1ccc(/C=C/c2ccnc3ccccc23)cc1N									12	
Cn1c(=O)c2[nH]c(C3CC(=O)CC(c4nc5c([nH]4)c(=O)n(C)c(=O)n5C)N3)nc2n(C)c1=O (stereo unspecified)									> 100	
N#Cc1c(-c2ccc(Cl)cc2)c(-c2ccc(Cl)cc2)nn(CCOC(=O)CCC(=O)O)c1=O		> 100 µM	> 100 µM	11.8 µM	> 100		4.89 µM	> 100 µM	0.202	
